Results taken from US9073855B2, “BCL-2 selective apoptosis-inducing agents for the treatment of cancer and immune diseases” (AbbVie Inc., priority 2008, dated 2015).

What was measured:
FL5.12/Bcl-2 cells = test: FL5.12/Bcl-2 cell viability assay under IL-3 withdrawal (CellTitre Glo); format: cell-based, murine; conditions: Mus musculus, IL-3 withdrawn 48 hrs, then 24 hrs with compound
Procedure, shortened: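 IL-3 withdrawal 48 hrs (no WEHI-3B medium), then compound 24 hrs, various concentrations; 37° C, 5% CO2; readout CellTitre Glo. Murine prolymphocytic FL5.12 stably overexpressing Bcl-2.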

GST-Bcl-2 = GST-Bcl-2 (Homo sapiens, UniProt P10415); test: TR-FRET binding assay, GST-Bcl-2 with F-Bak peptide probe; conditions: TR-FRET Binding Affinity, GST-Bcl-2, F-Bak peptide probe
Procedure, shortened: (§1)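 Competitive TR-FRET: GST-fusion protein, fluorescent Bak peptide probe and Tb-labelled anti-GST antibody incubated with compound dilution series (starting 50 μM as 2× stock, 10% DMSO) for 3 h at RT. Excitation 340/35 nm; Ki derived via Wang's exact competitive-binding equation.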

GST-Bcl-XL = GST-Bcl-XL (Homo sapiens, UniProt Q07817); test: TR-FRET binding assay, GST-Bcl-XL with F-Bak peptide probe; conditions: TR-FRET Binding Affinity, GST-Bcl-XL, F-Bak peptide probe
Procedure, shortened: as §1

Canine platelets = test: Platelet cell viability assay (platelet-rich plasma, Cell Titer Glo); format: cell-based; conditions: Canis lupus familiaris, 5 h, isolated canine platelets ex vivo, five hours at 37° C.
Description: After the incubation, platelets were equilibrated to room temperature for 20 minutes and then an equal volume of Cell Titer Glo reagent (Promega Corporation) was added. Samples were mixed for two minutes and then allowed to equilibrate for an additional 10 minutes at room temperature. The luminescence generated from the samples was quantitated using an LJL Analyst plate reader.
The effect of compounds on platelet survival can be directly evaluated ex vivo by examining the viability of isolated canine platelets in the presence of various concentrations of compound.

Chain of GST-Bcl-XL (Q07817 whole entry): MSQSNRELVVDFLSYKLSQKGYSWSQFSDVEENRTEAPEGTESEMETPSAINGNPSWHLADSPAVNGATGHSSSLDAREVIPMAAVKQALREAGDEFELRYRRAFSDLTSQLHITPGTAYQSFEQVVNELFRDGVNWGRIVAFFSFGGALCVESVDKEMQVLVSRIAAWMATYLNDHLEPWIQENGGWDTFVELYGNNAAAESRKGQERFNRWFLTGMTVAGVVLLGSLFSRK
Chain of GST-Bcl-2 (P10415 whole entry, the tested form may be a part): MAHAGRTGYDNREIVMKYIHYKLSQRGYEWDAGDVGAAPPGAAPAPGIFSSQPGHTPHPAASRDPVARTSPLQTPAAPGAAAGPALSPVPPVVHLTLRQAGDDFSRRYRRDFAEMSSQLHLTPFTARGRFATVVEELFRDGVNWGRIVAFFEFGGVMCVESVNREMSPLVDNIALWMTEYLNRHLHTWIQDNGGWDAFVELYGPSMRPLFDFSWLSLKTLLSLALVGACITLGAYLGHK

With `CC1(C)CCC(CN2CCN(c3ccc(C(=O)NS(=O)(=O)c4ccc(NCCCN5CCCC5)c([N+](=O)[O-])c4)c(Oc4cccc5[nH]ccc45)c3)CC2)=C(c2ccc(OC(F)(F)F)cc2)C1` [Example 70, 4-[4-({4,4-dimethyl-2-[4-(trifluoromethoxy)phenyl]cyclohex-1-en-1-yl}methyl)piperazin-1-yl]-2-(1H-indol-4-yloxy)-N-({3-nitro-4-[(3-pyrrolidin-1-ylpropyl)amino]phenyl}sulfonyl)benzamide] the EC50 (FL5.12/Bcl-2 cells) was 111 nM, the Ki (GST-Bcl-2) was 1.19 nM and the Ki (GST-Bcl-XL) was 74.4 nM. It also gave an EC50 (Canine platelets) greater than 50000 nM.
`CC1(C)CCC(CN2CCN(c3ccc(C(=O)NS(=O)(=O)c4ccc(NCCCN5CCCC5)c([N+](=O)[O-])c4)c(Oc4cccc5[nH]ccc45)c3)CC2)=C(c2cccc(C(F)(F)F)c2)C1` [Example 71, 4-[4-({4,4-dimethyl-2-[3-(trifluoromethyl)phenyl]cyclohex-1-en-1-yl}methyl)piperazin-1-yl]-2-(1H-indol-4-yloxy)-N-({3-nitro-4-[(3-pyrrolidin-1-ylpropyl)amino]phenyl}sulfonyl)benzamide] was tested, and the EC50 (FL5.12/Bcl-2 cells) was 460 nM, the Ki (GST-Bcl-2) was 6.23 nM and the Ki (GST-Bcl-XL) was greater than 660 nM. The EC50 (Canine platelets) was greater than 50000 nM.
With `CC1(C)CCC(CN2CCN(c3ccc(C(=O)NS(=O)(=O)c4ccc(NCCCN5CCCC5)c([N+](=O)[O-])c4)c(Oc4cccc5[nH]ccc45)c3)CC2)=C(c2cccc(F)c2)C1` [Example 72, 4-(4-{[2-(3-fluorophenyl)-4,4-dimethylcyclohex-1-en-1-yl]methyl}piperazin-1-yl)-2-(1H-indol-4-yloxy)-N-({3-nitro-4-[(3-pyrrolidin-1-ylpropyl)amino]phenyl}sulfonyl)benzamide] the EC50 (FL5.12/Bcl-2 cells) was 154 nM, the Ki (GST-Bcl-2) was 3.02 nM and the Ki (GST-Bcl-XL) was 52.4 nM. The EC50 (Canine platelets) was greater than 50000 nM.
Compound `CC1(C)CCC(CN2CCN(c3ccc(C(=O)NS(=O)(=O)c4ccc(NCCCN5CCCC5)c([N+](=O)[O-])c4)c(Oc4cccc5[nH]ccc45)c3)CC2)=C(c2ccc(F)cc2)C1` [Example 73, 4-(4-{[2-(4-fluorophenyl)-4,4-dimethylcyclohex-1-en-1-yl]methyl}piperazin-1-yl)-2-(1H-indol-4-yloxy)-N-({3-nitro-4-[(3-pyrrolidin-1-ylpropyl)amino]phenyl}sulfonyl)benzamide] has an EC50 (FL5.12/Bcl-2 cells) of 140 nM, a Ki (GST-Bcl-2) of 1.7 nM and a Ki (GST-Bcl-XL) of 16.9 nM. The EC50 (Canine platelets) was 23200 nM.
`CN1CCC(Nc2ccc(S(=O)(=O)NC(=O)c3ccc(N4CCN(CC5=C(c6ccc(Cl)cc6)CC(C)(C)CC5)CC4)cc3Oc3ccc4[nH]ccc4c3)cc2S(=O)(=O)C(F)(F)Cl)CC1` [Example 74, N-({3-{[chloro(difluoro)methyl]sulfonyl}-4-[(1-methylpiperidin-4-yl)amino]phenyl}sulfonyl)-4-(4-{[2-(4-chlorophenyl)-4,4-dimethylcyclohex-1-en-1-yl]methyl}piperazin-1-yl)-2-(1H-indol-5-yloxy)benzamide] showed an EC50 (FL5.12/Bcl-2 cells) of 8 nM, a Ki (GST-Bcl-2) of 0.02 nM and a Ki (GST-Bcl-XL) of 25.2 nM. It also gave an EC50 (Canine platelets) of 16700 nM.
In the case of `CN1CCC(Nc2ccc(S(=O)(=O)NC(=O)c3ccc(N4CCN(CC5=C(c6ccc(Cl)cc6)CCCC5)CC4)cc3Oc3ccc4[nH]ccc4c3)cc2[N+](=O)[O-])CC1` [Example 75, 4-(4-{[2-(4-chlorophenyl)cyclohex-1-en-1-yl]methyl}piperazin-1-yl)-2-(1H-indol-5-yloxy)-N-({4-[(1-methylpiperidin-4-yl)amino]-3-nitrophenyl}sulfonyl)benzamide], the EC50 (FL5.12/Bcl-2 cells) is reported as 22 nM, the Ki (GST-Bcl-2) is reported as 0.125 nM and the Ki (GST-Bcl-XL) is reported as 107 nM. The EC50 (Canine platelets) was 17700 nM.
Work on `CN1CCN(CCCNc2ccc(S(=O)(=O)NC(=O)c3ccc(N4CCN(Cc5ccccc5-c5ccc(Cl)cc5)CC4)cc3Oc3ccccc3)cc2[N+](=O)[O-])CC1` [Example 86, 4-{4-[(4′-chloro-1,1′-biphenyl-2-yl)methyl]piperazin-1-yl}-N-[(4-{[3-(4-methylpiperazin-1-yl)propyl]amino}-3-nitrophenyl)sulfonyl]-2-phenoxybenzamide] yielded an EC50 (FL5.12/Bcl-2 cells) of 74 nM, a Ki (GST-Bcl-2) of 0.212 nM and a Ki (GST-Bcl-XL) of 10.5 nM. It also gave an EC50 (Canine platelets) of 36300 nM.
With `CN1CCC(CNc2ccc(S(=O)(=O)NC(=O)c3ccc(N4CCN(Cc5ccccc5-c5ccc(Cl)cc5)CC4)cc3Oc3ccccc3)cc2[N+](=O)[O-])CC1` [Example 88, 4-{4-[(4′-chloro-1,1′-biphenyl-2-yl)methyl]piperazin-1-yl}-N-[(4-{[(1-methylpiperidin-4-yl)methyl]amino}-3-nitrophenyl)sulfonyl]-2-phenoxybenzamide] the EC50 (FL5.12/Bcl-2 cells) was 32 nM, the Ki (GST-Bcl-2) was 0.069 nM and the Ki (GST-Bcl-XL) was 4.64 nM. For the same compound, the EC50 (Canine platelets) was 19900 nM.
With `CN1CCC(Nc2ccc(S(=O)(=O)NC(=O)c3ccc(N4CCN(Cc5ccccc5-c5ccc(Cl)cc5)CC4)cc3Oc3ccccc3)cc2[N+](=O)[O-])CC1` [Example 89, 4-{4-[(4′-chloro-1,1′-biphenyl-2-yl)methyl]piperazin-1-yl}-N-({4-[(1-methylpiperidin-4-yl)amino]-3-nitrophenyl}sulfonyl)-2-phenoxybenzamide] the EC50 (FL5.12/Bcl-2 cells) was 65 nM, the Ki (GST-Bcl-2) was 0.129 nM and the Ki (GST-Bcl-XL) was 7.45 nM. It also gave an EC50 (Canine platelets) of 32000 nM.
`CN(C)CCCOc1ccc(S(=O)(=O)NC(=O)c2ccc(N3CCN(Cc4ccccc4-c4ccc(Cl)cc4)CC3)cc2Oc2ccccc2)cc1[N+](=O)[O-]` [Example 94, 4-{4-[(4′-chloro-1,1′-biphenyl-2-yl)methyl]piperazin-1-yl}-N-({4-[3-(dimethylamino)propoxy]-3-nitrophenyl}sulfonyl)-2-phenoxybenzamide] showed an EC50 (FL5.12/Bcl-2 cells) of 40 nM, a Ki (GST-Bcl-2) of 0.07 nM and a Ki (GST-Bcl-XL) of 2.32 nM. The EC50 (Canine platelets) was 23800 nM.
In the case of `CN1CCN(CCCNc2ccc(S(=O)(=O)NC(=O)c3ccc(N4CCN(CC5=C(c6ccc(Cl)cc6)CC(C)(C)CC5)CC4)cc3Oc3ccc4[nH]ccc4c3)cc2[N+](=O)[O-])CC1` [Example 96, 4-(4-{[2-(4-chlorophenyl)-4,4-dimethylcyclohex-1-en-1-yl]methyl}piperazin-1-yl)-2-(1H-indol-5-yloxy)-N-[(4-{[3-(4-methylpiperazin-1-yl)propyl]amino}-3-nitrophenyl)sulfonyl]benzamide], the EC50 (FL5.12/Bcl-2 cells) is reported as 11 nM, the Ki (GST-Bcl-2) is reported as 0.047 nM and the Ki (GST-Bcl-XL) is reported as 8.78 nM. For the same compound, the EC50 (Canine platelets) was 22300 nM.
`CC1(C)CCC(CN2CCN(c3ccc(C(=O)NS(=O)(=O)c4ccc(NCCCN5CCCC5)c([N+](=O)[O-])c4)c(Oc4ccc5[nH]ccc5c4)c3)CC2)=C(c2ccc(Cl)cc2)C1` [Example 97, 4-(4-{[2-(4-chlorophenyl)-4,4-dimethylcyclohex-1-en-1-yl]methyl}piperazin-1-yl)-2-(1H-indol-5-yloxy)-N-({3-nitro-4-[(3-pyrrolidin-1-ylpropyl)amino]phenyl}sulfonyl)benzamide] gave an EC50 (FL5.12/Bcl-2 cells) of 13 nM, a Ki (GST-Bcl-2) of 0.027 nM and a Ki (GST-Bcl-XL) of 2.61 nM. The EC50 (Canine platelets) was 14100 nM.
`CN1CCN(CCCNc2ccc(S(=O)(=O)NC(=O)c3ccc(N4CCN(CC5=C(c6ccc(Cl)cc6)CC(C)(C)CC5)CC4)cc3Oc3cccc4[nH]ccc34)cc2[N+](=O)[O-])CC1` [Example 99, 4-(4-{[2-(4-chlorophenyl)-4,4-dimethylcyclohex-1-en-1-yl]methyl}piperazin-1-yl)-2-(1H-indol-4-yloxy)-N-[(4-{[3-(4-methylpiperazin-1-yl)propyl]amino}-3-nitrophenyl)sulfonyl]benzamide] was tested, and the EC50 (FL5.12/Bcl-2 cells) was 9 nM, the Ki (GST-Bcl-2) was 0.04 nM and the Ki (GST-Bcl-XL) was 5.53 nM. It also gave an EC50 (Canine platelets) of 21700 nM.
